Data taken from patent US11622964B2, “Method for destroying cellular mechanical homeostasis and promoting regeneration and repair of tissues and organs, and use thereof” (INSTITUTE OF ZOOLOGY, CHINESE ACADEMY OF SCIENCES, priority 2018, dated 2023).
Entries after “also recorded” stand apart in the source; their conditions may differ.

How the values were obtained:
CCl4 liver damage = test: Blood biochemistry, hepatocyte proliferation, apoptosis and liver function genes after CCl4 liver damage; assay type: in vivo, mice
Method: Blood biochemical analysis (fasting 12-16 hours before sampling) further confirms that myosin inhibitor (−)-blebbistatin may reduce the content of liver damage indicators such as ALT, AST and GGT, as shown in FIG. 4A. Further, Alb-crexmTmG hybrid mice are used for fibrosis modeling with CCl4, wherein GFP is expressed in mature hepatocytes of the mice. […] In summary, the myosin inhibitor (−)-blebbistatin promotes liver regeneration by inhibiting fibrosis of liver damage, promoting hepatocyte proliferation, and reducing apoptosis, thereby maintaining liver function.

[1] = tested on: bleomycin-induced pulmonary fibrosis; test: Bleomycin-induced pulmonary fibrosis model; assay type: in vivo, mice; conditions: 1-3 mg/kg/day
Method: In the invention, bleomycin (BLM) is instilled into pulmonary tracheal of ICR or C57Bl/6 mice to successfully construct a mouse model of pulmonary fibrosis, and the mice are treated by intraperitoneal administration of myosin inhibitor (−)-blebbistatin. […] The detailed processes of injecting bleomycin are as follows:
(1) Dilution of bleomycin: 50 mg/ml stock solution is diluted 25 times to obtain a final concentration of 2 mg/ml.
(2) The mice are anesthetized by intraperitoneal injection of 0.5% sodium pentobarbital (100 μl/10 g b.w.).
(3) The neck skin is disinfected by 75% alcohol, cutting the neck skin and bluntly separating the mucosa and muscles of the trachea, exposing the trachea, and taking care not to damage the thyroid.
(4) 50 μl (20 g body weight) of bleomycin is injected into the interval of tracheal cartilage by an insulin syringe at a dose of 5 mg/kg. After the needle is pulled out, putting the console upright, rotating left and right for 1 min, and then the skin is sutured. The mice eat food and drink water freely after spontaneously awakening.
The mice are identified and divided into two groups: DMSO (indicated as “Con” in FIG. 8) and (−)-blebbistatin (indicated as “Bleb” in FIG. 8, 1-3 mg/kg/day) are respectively administrated by intraperitoneal injection, wherein they are respectively dissolved in 2-5% DMSO+30% PEG400+2% Tween80+ddH2O. The survival status of the mice is recorded with intraperitoneal injection/day, tail vein injection/3 days. The result is shown in FIG. 8B, all the mice in the control group died on day 8 of treatment, while the mice in the Bleb treatment group have a survival rate of 40% on day 15 of treatment.
(6) Small animal CT scanning is performed on D8 (modeling on D14), the samples are taken and fixed after heart perfusion, slicing the samples and performing H&E and Sirius red staining. The result is shown in FIG. 8D, (−)-blebbistatin inhibits tissue damage and fibrosis during bleomycin-induced lung damage.

[2] = tested on: homologous recombination repair; test: Homologous recombination repair reporter plasmid system (flow cytometry, GFP/mRuby); assay type: cell-based; conditions: treated for 4 h at 18 h, 24 h, 36 h after medium change; flow analysis 72 h after transfection
Method: First, a reporter plasmid system for homologous recombination repair is constructed, and the cells emit green fluorescence only when the foreign homologous sequence and the homologous fragment of the cell are homologously recombined. Meanwhile, mRuby red fluorescent protein is transferred to label the efficiency of transfected cells, and the efficiency of homologous recombination is determined by flow cytometry analysis of the ratio of green fluorescent protein to mRuby. 18 h after changing the medium for the transfection, the control group is treated with DMSO for 4 h; and 18 h, 24 h, and 36 h after changing the medium for the transfection, the experimental group is treated with (−)-blebbistatin for 4 h, and the HDR efficiency is analyzed by flow analysis 72 h after transfection. […] The experimental procedure is as follows: after changing the medium for the transfection, the control group is treated with DMSO; and after changing the medium for the transfection, the experimental group is treated with 250 nM RTA408; then the HDR efficiency is analyzed by flow analysis 72 h after transfection.

[3] = tested on: bile duct ligation-induced fibrosis; test: Bile duct ligation-induced hepatic fibrosis model; assay type: in vivo, mice
Method: The ICR, C57Bl/6 mice used in the experiment are purchased from SPF (Beijing) Biotechnology Co., Ltd.; elbow tweezers, finger tweezers, scissors, needle holders, suture needles, suture threads are purchased from Asone Trading Co., Ltd.; antibiotics are purchased from Gibco (15240-062). 8 week-old female mice are used, and they are fasted for 24 hours before the experiment. The mice are anesthetized with 5% chloral hydrate, and intraperitoneally injected with 8 ml/kg. The mice are fixed after anesthesia, and an incision is made in the abdomen to expose the organs. The duodenum of the stomach end is found and gently pulled to find the bile duct, carefully peeling off the bile duct with tweezers, ligating the bile duct with suture thread, then adding antibiotics, and suturing to close the abdominal cavity. The mice are fasted for 12 hours after surgery. 14-20 days after surgery, the skin of the mice is observed to be yellow-green, and drug is administered to mice for treatment. The mice in the modeling group are evenly divided into two groups, and the mice of experimental group are intraperitoneally injected with (−)-blebbistatin. As for the administration method, (−)-blebbistatin is dissolved in DMSO; sequentially adding 2-5% DMSO (final concentration, volume ratio)+30% PEG400 (final concentration, volume ratio)+2% Tween 80 (final concentration, volume ratio), the mice of the control group are injected with a solvent without the small molecule but containing an equal amount of DMSO (denoted as “Con”).

Structure (SMILES): Cc1ccc2c(c1)C(=O)[C@]1(O)CCN(c3ccccc3)C1=N2 [(−)-blebbistatin]
- Alb expression in GFP-expressing hepatocytes (CCl4 liver damage; Alb-cre x mTmG hybrid mice, CCl4 fibrosis modeling): most of the cells expressing GFP express Alb
- expression of hepatocyte-related, bile duct-related and proliferation-related genes (transcriptional level) (CCl4 liver damage; compared with the control group): significantly maintains high level expression
- content of liver damage indicators such as ALT, AST and GGT (blood biochemical analysis) (CCl4 liver damage; fasting 12-16 hours before sampling): reduce
- apoptosis during liver damage (TUNEL staining) (CCl4 liver damage; mouse, in vivo): reduces
- cell proliferation after liver damage (ALB/Ki-67 staining) (CCl4 liver damage; mouse, in vivo): significantly promotes
- decrease in lung volume (small animal CT) [1]: inhibits the decrease
- lung tissue damage (H&E staining) [1]: inhibits
- pulmonary fibrosis (Sirius red staining, statistical analysis) [1]: inhibiting pulmonary fibrosis; also recorded: significantly improves; also recorded: inhibits
- survival of mice with pulmonary fibrosis (in words) [1]: significantly promoting survival
- decrease in lung volume (small animal CT) ([1]; listed as Bleb): significantly inhibits
- lung tissue damage (H&E staining) ([1]; listed as Bleb): relieves lung damage
- pulmonary fibrosis (Sirius red staining, statistical analysis) ([1]; listed as Bleb): relieves pulmonary fibrosis
- survival of mice with pulmonary fibrosis (in words) ([1]; listed as Bleb): significantly increases
- survival rate ([1]; day 15 of treatment, 10 mice per group): 40%
- efficiency of homologous recombination (HDR efficiency) [2]: significantly increases
- accumulation of collagenous fibers (Sirius Red) ([3]; after 15 days of treatment): significantly inhibited
- proliferation of myofibroblasts (α-SMA staining) ([3]; after 15 days of treatment): significantly inhibited
- accumulation of collagenous fibers (Sirius Red) ([3]; after 30 days of treatment): significantly inhibits
- hepatocyte proliferation (Ki-67 staining) ([3]; during the bile duct ligation process): promotes
- state of the mice ([3]; intraperitoneal injection): more active and energetic
